According to ChEMBL document CHEMBL1121859, “Photochemical inactivation of the angiotensin receptor of rabbit aorta by N alpha-(2-nitro-5-azidobenzoyl)-[1-aspartic acid,5-isoleucine]angiotensin II” (1981):

What was measured:
[1] = organism: Oryctolagus cuniculus; test: Compound was tested for the inhibition of nitroazidobenzoyl-angiotensin II induced contraction of rabbit aortic strips; pD2 is the negative logarithm of ED50; format: functional, Aorta
[2] = organism: Oryctolagus cuniculus; test: Compound was tested for the inhibition of nitroazidobenzoyl-angiotensin II induced contraction of rabbit aortic strips; format: functional; conditions: Aorta, read-out: ED50 (the source's name)

Row | EC50 [2] [nM] | Structure (SMILES) | pD2 [1]
1 | 60.4 | CC[C@H](C)[C@H](NC(=O)[C@H](Cc1ccc(O)cc1)NC(=O)[C@@H](NC(=O)[C@H](CCCN=C(N)N)NC(=O)[C@H](CC(=O)O)NC(=O)c1cc(N=[N+]=[N-])ccc1[N+](=O)[O-])C(C)C)C(=O)N[C@@H](Cc1c[nH]cn1)C(=O)N1CCC[C@H]1C(=O)N[C@@H](Cc1ccccc1)C(=O)O | 7.22
2 | 3.63 | CC[C@H](C)[C@H](NC(=O)[C@H](Cc1ccc(O)cc1)NC(=O)[C@@H](NC(=O)[C@H](CCCNC(=N)N)NC(=O)[C@@H](N)CC(=O)O)C(C)C)C(=O)N[C@@H](Cc1cnc[nH]1)C(=O)N1CCC[C@H]1C(=O)N[C@@H](Cc1ccccc1)C(=O)O [ANGIOTENSIN II] | 8.44
